From a melting point compilation (Tetko et al.; mined from patent text by program, amines drawn as free bases though some values may be those of a salt)

SMILES	melting point [°C]
C=Cc1ccc(O)c(-n2nc3ccccc3n2)c1	98 to 99
O=C(O)C1=Cc2cc(-c3ccc(Br)cc3)ccc2OC1C(F)(F)F (configuration not stated)	215 to 216
COc1ccc(C23CCCC2(c2ccc(OC)cc2)C3)cc1 (configuration not stated)	92 to 93
CC(C)(C)OC(=O)NC(CC(=O)OCc1ccccc1)C(=O)C(C#N)=P(c1ccccc1)(c1ccccc1)c1ccccc1 (configuration not stated)	42 to 44
CNC(=O)C(NC(=O)C(CC(=O)O)N1C=CN(c2ccc(-c3ccccc3)cc2)C1)C(C)(C)C (mixture of isomers)	187 to 188
Nc1c([N+](=O)[O-])cnn1-c1c(Cl)cc(C(F)(F)F)c(Cl)c1Cl	78 to 85
CCOC(=O)Cc1ccc(CCNS(=O)(=O)c2ccc(Cl)cc2)cc1	88 to 90
C=CC(O)c1ccc2[nH]c(CCCC)nc(=O)c2c1 (configuration not stated)	141
O=[N+]([O-])c1ccc(-c2cnc3nc(SCc4ccccc4)nn3c2)cc1	195 to 199
CS(=O)(=O)c1ccc(C(O)C(CF)N=[N+]=[N-])cc1 (configuration not stated)	121 to 123
c1cc(-c2cc(C3CC3)on2)ccn1	76 to 80
CN(C)Cc1ccc(SC2CCN(C(c3ccccc3)(c3ccccc3)c3ccccc3)CC2)cc1	163
CN1C(=O)C(c2ccccc2)Oc2cccc3nc4c(c1c23)CCCC4 (configuration not stated)	188 to 189
ClCCN(CCCl)CCCCOc1cccc(Nc2c3ccccc3nc3c(OCCN(CCCl)CCCl)cccc23)c1	95 to 96
Cc1cc(-c2nnn(C)n2)cc(C)c1OCCCC(N)=O	155 to 156
CCOC(=O)c1nc2ccc(OC)cc2n(C)c1=O	166
CC1(C)Oc2ccc(-c3c(NCCO)c(=O)c3=O)cc2[C@@H](N2Cc3ccccc3C2=O)[C@@H]1O (relative stereo)	205 to 215
COC(=O)N/C(=C\C[PH](=O)CO)C(=O)O (configuration not stated)	254 to 256
CN(C(CCn1c(=O)[nH]c2ccccc2c1=O)C(=O)NO)S(=O)(=O)c1ccc(Oc2cccc(Cl)c2)cc1 (configuration not stated)	137 to 140
N#Cc1cc(C(=O)NNC(=O)c2occ(-c3ccc(Cl)cc3)c2-c2ccc(Cl)cc2)ccc1O	190 to 191
Cc1ccc2c(O)cnnc2c1	114 to 115

SMILES	melting point [°C]
CS(=O)(=O)c1c(C#N)nn(-c2c(Cl)cc(C(F)(F)F)cc2Br)c1N	235 to 238
CN1C(=O)C2(COc3cc4c(cc32)OCCO4)c2c(C(=O)NC3CCCCC3)cccc21 (configuration not stated)	139 to 140
Brc1ccc(N2CCCN(c3ccc(Br)cn3)CC2)nc1	178 to 181
COc1nc(C(F)(F)F)cc(=O)n1-c1cc(C(=O)O)c(Cl)cc1F	205 to 210
c1ccc(Oc2nc(Oc3ccccc3)nc(N3CCOCC3)n2)cc1	166 to 168
COc1cc2c(cc1OC)N(C)C(=O)CN=C2c1cccc([N+](=O)[O-])c1	152 to 155
Cc1ccc(NC(=O)c2ccc(C(=O)Nc3ccccc3NC(=O)OC(C)(C)C)nc2)cc1Nc1nc(-c2cccnc2)cs1	222 to 224
CC1(C)CCC(C)(C)c2cc(C(COc3ccc(C(=O)O)c(O)c3)=NO)ccc21	220 to 222
CC1(C)CCCC(N2CCN(C3CCC(C(C)(C)C)CC3)CC2)C1 (configuration not stated)	90 to 92
CCCCCOCCCCCCCCCCCCBr	25
COCCN1CCc2ccc(Nc3ncc(Cl)c(Nc4ccccc4C(=O)NC(C)C)n3)cc2CC1	186 to 189
COC(=O)[C@H](Cc1ccc(NC(=O)c2cc(C#N)ccc2Cl)cc1)NC(=O)OC(C)(C)C	185 to 187
Nc1nc(N)nc(OCc2ccccc2)n1	184 to 185
Cc1cc(C)c(NC(=O)Nc2c(-c3ccccc3Cl)c3ccncc3n(C)c2=O)c(C)c1	222 to 224
COC(=O)NS(=O)(=O)c1ncccc1C(F)(F)F	128 to 129
Cc1cc2c(s1)c(=O)c(C(N)=O)cn2C	328 to 330
CN(C)C(=O)CCCOC(=O)C(OCc1ccc(-c2ccc(Cl)cc2)cc1)(C(F)(F)F)C(F)(F)F	54 to 55
NC(=O)Cc1nc(C(=O)c2ccccc2)no1	156 to 158
COc1cc(C(=O)Cc2ccc(O)cc2)c(O)cc1O	157 to 159
O=C(CN1C(=O)c2ccccc2S1(=O)=O)OC1CCCCC1	83
CCCn1c(=O)[nH]c2cnc(-c3ccccc3)nc21	263 to 264

Now from value to compound:

melting point [°C]	SMILES
167 to 169	O=c1nc(N2CCC=C(c3ccccc3)C2)sc2ncccc12
237 to 238	O=C1C(=O)N2CCOc3c(Cl)c(Cl)cc1c32
152 to 153	CCOC(=O)c1c(-c2ccccc2)c2ccc(Cl)cc2c(=O)n1C
152 to 156	ICCCn1c2ccccc2c2ccccc21
130 to 140	CN1C(=O)CC[C@]2(C)c3ccc(-c4cc(F)c([N+](=O)[O-])cc4F)cc3CC[C@@H]12
176 to 178	Cc1ccc(Sc2cncc3sc(C(=O)NN)cc23)cc1
131 to 133	COc1ccc(Cl)cc1C1CC(=O)c2c(C)ccnc2C1 (configuration not stated)
79	Cc1ccc(S(=O)(=O)N2CCCC2c2cccc(C)c2)cc1 (racemic)
131 to 133	OC1Cc2cc(I)ccc2Sc2ccccc21 (configuration not stated)
164 to 165	Cc1cnc(C)c(NCCc2c[nH]cn2)n1
76.8 to 77.7	CCCCc1c(-c2cc(C)c(OC)c(C)c2)[nH]c2ccccc12
204 to 206	COc1ccc2c(c1)c(SC)c(C(N)=O)n2C
115	Clc1cccc(N2CCN(Cc3ccc(-c4ccccc4)s3)CC2)c1
270	Cc1cc(-c2cc(C(F)(F)F)n3ncc(-c4nc(-c5cccc(S(N)(=O)=O)c5)no4)c3n2)ccc1C(F)(F)F
96 to 97	Cc1c(-c2cc(F)cc(C(F)(F)F)c2)ccc(N)c1C#N
181 to 185	O=Nc1c(O)cc(N2CCCCC2)c2oc3ccccc3c12
> 300	CNc1nc(NS(=O)(=O)c2ccc(N)cc2)cc(N2CCCC2)n1
163 to 165	CN1C(=O)CN(c2cccc(C(F)(F)F)c2)NC1=O
132 to 136	CN1CCN(c2cc(Cl)cc3c2c(=O)n(Cc2ccccc2)c(=O)n3C)CC1
45	CCOC(=O)c1cnc2scc(C)n12
143 to 144	COc1ccc(C#CCSc2ccc(OCC(=O)O)c(C)c2)cc1
123 to 124	CNC(=O)C1=C(OC(C)C)c2cc(OC)ccc2S1=O (configuration not stated)
178 to 179	CC(=O)c1cccc(-c2ccc3c(c2)C(C)(C)OC(=O)N3)c1
173 to 174	O=C(O)c1cccc(OCc2ccc(Cl)c(Cl)c2)c1
90 to 91	CCOC(=O)CCc1cn(-c2ccc([N+](=O)[O-])cn2)nc1C(C)C
69 to 70	COc1cc(CCCC(=O)O)ccc1C
103 to 105	CC1(C)CC(=O)c2c(C3CC3)sc(-c3nccs3)c2C1
208	COc1ccc(-c2cc(-c3ccccc3)nc(C)c2C(=O)O)cc1OC
220	CC12CCC(C(=Cc3ccc(O)cc3)C1=O)C2(C)C (configuration not stated)
128	C=C(OCC1(N2CCN(C(=O)OC(C)(C)C)CC2)Cc2ccccc2C1)c1cc(C)cc(C)c1
